US20210230213A1, “ARAMCHOL SALTS” (GALMED RESEARCH AND DEVELOPMENT LTD., priority 2013, published 2021)
Values joined by “and” are separate entries in the source; they are usually repeats but may differ in a detail not shown here. Identical values can stand only once.

Assays:
[1] = Dynamic Vapour Sorption (DVS); format: physicochemical
Procedure: The samples was weighed in a glass pan, typically 20-30 mg, and equilibrated at 0% relative humidity (RH). After the material had dried, the RH was increased with 10% per step for 1 hour per increment, ending at […].
The software used for data collection was DVSWin v3.01 No Video. Data analysis was performed using DVS Standard Analysis Suite v6.3.0 (Standard).
After completion of sorption cycle, the material was dried. XRPD was performed before and after DVS.

Bulk and tapped density = format: physicochemical
Text: Measurements of tapped and bulk densities are used to predict the flow properties and compressibility of powders. These two properties are important for manufacture of solid dosage formulations, such as tablets and capsules. Compounds with low values of tapped and bulk densities may be subject to difficulties in tablet compression, and therefore may require additional processing for improving flow properties. […] Therefore, to improve flow properties a wet granulation process is used prior to tablet compression.

[2] = water
[3] = In vivo permeability / PK after intrajejunal administration in cannulated rats (Example 7); design: species or system male Wistar rats; settings: rat
Procedure: An in vivo permeability study of Aramchol salts was performed in male Wistar rats cannulated in the jugular vein and in the jejunum. Intestinal cannulation was performed in order to bypass protonation of Aramchol salts in acidic gastric pH. Aramchol salts solubilized in PBS (30 mg/mL) were administered to rats intestine (jejunum) in a dose of 100 mg/kg (based on free acid), via a cannula inserted into the proximal side of the jejunum. A suspension of Aramchol free acid (in PBS, 30 mg/mL) was administered via the same route and was used as control. Blood samples were withdrawn via a cannula inserted into jugular vein at pre-determined time points (pre-dose, 1 hr, 2 hr, 4 hr, 8 hr, 12 hr, 24 hr post dose). Plasma concentrations of Aramchol (free acid) were measured using a liquid chromatography-tandem mass spectrometry (LC-MS-MS) method by Analyst Bioanalytical Laboratories, Israel. All PK parameters were calculated using non-compartmental analysis. Only those plasma concentrations equal to or greater than the lower limit of quantitation (LOQ) (48.66 ng/mL) were used in the analysis. Plasma concentrations <LOQ that occurred from pre-dose to the first concentration ≥LOQ were treated as 0. Actual sampling times were used for all pharmacokinetic analyses. The following PK parameters were calculated: maximum plasma concentration (Cmax), time to Cmax (Tmax), area under the plasma concentration-time curve from time of administration until the last plasma concentration (AUC0-4), AUC/dose, elimination half-life (t½). Cmax and Tmax were taken directly from the data. Area under the curve from zero to the final sample with a concentration ≥LOQ. AUC0-4 was calculated using the linear trapezoidal method.

[4] = Accelerated stability of Aramchol N-methylglucamine at 40° C./75% RH (Example 5); format: physicochemical; settings: for assay: calculated against free acid reference
Procedure: The following parameters were determined at t=0, t=1 week, t=2 weeks: appearance, LC-purity, LC-assay (the assay is calculated against the reference which is the free acid and therefore, the results are less than 100%), water content. The appearance and purity remained unchanged under the investigated conditions. […] The calculated assay remained relatively unchanged under the investigational conditions. Water content increased under the investigational conditions and the material seemed hygroscopic. The attraction of water in the solid state form was more prominent for material stored in an open container.

[5] = Fill weight of size 00 HPMC capsule; format: physicochemical; settings: hard HPMC capsule size 00, filled as is without tapping
Text: Aramchol (free acid), and the three salts were filled as are, into hard HPMC (Hypromellose; Capsule size 00 (CapsCanada, ON, Canada) without taping, fill weight is presented in table 9.

[6] = Pharmacokinetics of capsules in dogs, single dose and BID (Example 8); settings: dogs
Procedure: Capsules containing 100 mg of Aramchol were dosed to dogs as either the free acid or the meglumine salt.
The complete data-set across all animals and time-points for each dose form (free acid or meglumine salt) were fit to single compartment PK models with first order rate of absorption Ka (h−1) and elimination parameterised by CL and V (rate of elimination=CL/V, h−1). For the meglumine salt group, the first dose data for M5 was removed.
Capsules containing 100 mg of Aramchol were dosed to dogs as either the free acid or the meglumine salt BID. […] A clinical study that investigated the plasma concentration of Aramchol after oral dosing of 300 mg BID at steady state was conducted in 16 healthy volunteers.

[7] = Mathematical extrapolation of dog data to humans for meglumine salt
[8] = 100 mg/kg, mean ± standard error
[9] = capsule, Day 1, individual animals, listed as Aramchol meglumine salt
[10] = capsule, Day 1 single dose, Mean
[11] = capsule, Day 11, individual animals, listed as Aramchol meglumine salt
[12] = capsule, Day 11 final dose after BID dosing, Mean
[13] = humans, prediction using % CV 24.3

3β-arachidylamido-7α,12α-dihydroxy-5β-cholan-24-oic acid N-methylglucamine salt
total mass uptake (DVS) ([1]; Example 4 material, sorption to 95% RH, […]): 16%
Mass uptake (DVS) ([1]; RH raised from 0% in 10% steps to 95% RH, stepwise, reversible): 14.9% (stepwise; reversible)
Bulk density (Bulk and tapped density): 0.57 g/mL
Tapped density (Bulk and tapped density): 0.66 g/mL
Dissolved (50 in g in 1) at 50° C. ([2]; Aramchol free acid and base 1:1, 50° C.): Yes
salt remains in solution after cooling to 20° C. ([2]; cooled to 20° C.): no
increase in Cmax compared to Aramchol free acid [3]: 3.6 fold
Cmax ([3]; 100 mg/kg (based on free acid) in PBS 30 mg/mL, plasma Aramchol (free acid), mean ± standard error): 5012.1 ± 1879.9 (5) ng/mL
AUC(0-t) [3, 8]: 33625.2 ± 9567.7 (5) hr × ng/mL
AUC/dose [3, 8]: 331.7 ± 82.5 (5) hr × ng × kg/mL × mg
t1/2 [3, 8]: 5.2 ± 1.0 (5) hr
Tmax ([3]; 100 mg/kg, median): 4.0 (5) [2-4] hr
purity ([4]; 40° C./75% RH, as a solution in a closed flask, T = 0): 99.5%
purity ([4]; 40° C./75% RH, as a solution in a closed flask, T = 1 (week)): 99.5%
purity ([4]; 40° C./75% RH, as a solution in a closed flask, T = 2 (weeks)): 99.5%
water ([4]; 40° C./75% RH, solid in a closed container, T = 0): 1.2%
water ([4]; 40° C./75% RH, solid in a closed container, T = 1 (week)): 1.6%
water ([4]; 40° C./75% RH, solid in a closed container, T = 2 (weeks)): 2.0%
water ([4]; 40° C./75% RH, solid in an open container, T = 0): 1.2%
water ([4]; 40° C./75% RH, solid in an open container, T = 1 (week)): 4.3%
water ([4]; 40° C./75% RH, solid in an open container, T = 2 (weeks)): 5.7%
purity ([4]; 40° C./75% RH, solid state form in a closed container, T = 0): 99.5%
purity ([4]; 40° C./75% RH, solid state form in a closed container, T = 1 (week)): 99.4%
purity ([4]; 40° C./75% RH, solid state form in a closed container, T = 2 (weeks)): 99.5%
purity ([4]; 40° C./75% RH, solid state form in an open container, T = 0): 99.5%
purity ([4]; 40° C./75% RH, solid state form in an open container, T = 1 (week)): 99.5%
purity ([4]; 40° C./75% RH, solid state form in an open container, T = 2 (weeks)): 99.5%
purity on exposure to 40° C./75% RH ([4]; 40° C./75% RH, up to 2 weeks): no change to purity values
assay ([4]; solid in a closed container, T = 0): 74.7%
assay ([4]; solid in a closed container, T = 1 (week)): 72.8%
assay ([4]; solid in a closed container, T = 2 (weeks)): 74.4%
assay ([4]; solid in an open container, T = 0): 74.7%
assay ([4]; solid in an open container, T = 1 (week)): 76.7%
assay ([4]; solid in an open container, T = 2 (weeks)): 71.9%
assay ([4]; solution in a closed flask, T = 0): 74.7%
assay ([4]; solution in a closed flask, T = 1 (week)): 75.3%
assay ([4]; solution in a closed flask, T = 2 (weeks)): 74.8%
fill weight of one 00 size capsule [5]: 0.30 gram
higher plasma exposure than free acid at the same molar dose [6]: 26%
AUCss ([6]; 100 mg BID capsules, AUC 0-72 h from last administration on day 11, N = 3): 1,143,428 ng*h/mL
Cmax ([6]; capsule 100 mg Aramchol, Day 1 single dose, Mean): 4880 ng/mL
Cmax ([6]; capsule, Day 1, individual animals (1M-3M free acid, 4M-6M meglumine salt), listed as Aramchol meglumine salt): 5770 ng/mL and 1720 ng/mL and 7160 ng/mL
AUC0-12 [6, 9]: 34.8 µg·h/mL and 3.8 µg·h/mL and 53.2 µg·h/mL
AUCinf [6, 9]: 205 µg·h/mL and 66.9 µg·h/mL and 440 µg·h/mL
Half-life [6, 9]: 19.2 h and 23.1 h and 26.1 h
Tmax [6, 9]: 12 h and 24 h
AUC0-12 [6, 10]: 30.6 µg·h/mL
AUCinf [6, 10]: 237 µg·h/mL
Half-life [6, 10]: 22.8 h
Tmax [6, 10]: 20 h
AUC0-12 [6, 11]: 365 µg·h/mL and 302 µg·h/mL and 315 µg·h/mL
AUCinf [6, 11]: 1600 µg·h/mL and 1150 µg·h/mL and 1590 µg·h/mL
Cmax [6, 11]: 37600 ng/mL and 38800 ng/mL and 28300 ng/mL
Half-life [6, 11]: 29.6 h and 28.9 h and 35.3 h
Tmax [6, 11]: 8 h and 4 h
AUC0-12 [6, 12]: 328 µg·h/mL
AUCinf [6, 12]: 1450 µg·h/mL
Cmax [6, 12]: 34900 ng/mL
Half-life [6, 12]: 31.3 h
Tmax [6, 12]: 6.67 h
greater exposure using the salt (from model Cl) ([6]; compartmental modelling): 28%
AUCinf from day 11 onwards ([6]; final dose day 11): 1450 µg·h/mL
AUC0-12 D11 ([6]; final dose day 11, steady state): 328 µg·h/mL
AUCinf D1 ([6]; first dose day 1, all animals): 237 µg·h/mL
AUCinf D1 ([6]; first dose day 1, animal 5M (M5) excluded): 323 µg·h/mL
Cl ([6]; single compartment PK model): 320
AUCinf higher than the free acid ([6]; single dose day 1, animal 5M excluded): 34%
AUCss [7]: 144,295 ng*h/mL
AUCss ([7]; embodiment, b22 and b98 say the value pertains to dogs): 144,295 ng*h/mL
maximum plasma exposure [7, 13]: 179.382 µg·h/mL
minimum plasma exposure [7, 13]: 109.208 µg·h/mL
